Where “and” joins values, the source holds several entries; their conditions need not be identical. Equal entries are not always repeated. Where two headings read alike, the source gives them in different places.
Key:
[1] = Critical micelle concentration by optical pendant drop method (surface tension); type: physicochemical; details: in water, superscript L logarithmic fitting, S sigmoidal fitting
Text: The surface-active molecules (surfactants) dissolve in aqueous solutions as monomers to certain concentration threshold, after which they start to build up into differing aggregates. This concentration threshold is called critical micellar concentration (CMC). However, for many surfactants the CMC is moreover a concentration range, not a specific concentration point, and the width of the range depends greatly on the structure of the compound. […] The optical pendant drop method using a contact angle meter (CAM 200, KSV Instruments, Espoo, Finland) was used for determining the CMCs. In short, a series of differing IL concentrations in water solution was investigated. A pendant-drop of a constant height was formed and the surface tension of the drop was determined based on the drop curvature by using a fitting method according to Young-Laplace equation. The surface tension was determined based on the curvature and plotted as a function of the IL concentration. The surface tension of the drop decreases as a function of increasing surfactant concentration because the singly dispersed IL molecules diffuse and orientate at the air-water interface and therefore reduce the surface tension. When the concentration reaches the CMC, the singly dispersed molecules form aggregates and no additional molecules diffuse to the surface of the drop. Therefore no change in surface tension is observed. The CMCs were determined based on the intersection point of two trend lines fitted based on the data. The surface tension was either plotted as a function of IL concentration or logarithm of the concentration and either sigmoidal or logarithmic fit, respectively, was used. The choice of method was dependent on which method provided the best fit.

[2] = test system: Vibrio fischeri bacteria; assay: Vibrio fischeri toxicity assay (Microtox, decay of bioluminescence); type: cell-based
Method: The toxicities were determined by exposing Vibrio fischeri marine bacteria to aqueous solutions of ILs in differing concentrations. These bacteria have successfully been used for IL toxicity assessments in a myriad of studies. A recent comparison was performed between V. fischeri and three other standardized toxicity assays utilizing aquatic organisms, namely Daphnia magna (a fresh water crustacean), Selenastrum capricomutum (a freshwater algae) and Phaeodactylum tricomutum (a seawater algae).
The toxicity measurements were performed from an ecotoxicological point of view, since ILs are potentially hazardous for the environment and particularly for organisms in aquatic environments. Therefore, V. fischeri marine bacteria were utilized in these measurements. EC50 values were determined for seven water-soluble surface-active ILs. The ILs in this study included Ch-, GND-, TMG-based ILs with straight and branched (iso and neo forms) fatty acid chains, namely isostearates, decanotes and neodecanoates. As a reference, the toxicities of the sodium salts of these carboxylates were measured in order to obtain information on the effect of the cation on the toxicities of the ILs.
The toxicities of the ILs were defined by measuring their EC50 values using V. fischeri bacteria and Microtox luminometer/thermostate apparatus (Modern Water, USA). The response measured in this assay is the decay of bioluminescence produced by the bacteria. In short, the bioluminescence was measured before the exposure on the potentially toxic compound to determine the baseline luminescence. Consequently, the bacteria were exposed on minimum four differing toxicant concentrations in 2% (w/v) NaCl solution and the decay in the luminescence was recorded. Based on the concentration-dependent decay the EC50 value was defined. The toxicities were defined at set time intervals of 5 and 15 minutes. Two independent measurements were performed for each IL as duplicates.

[3] = Differential scanning calorimetry of IL/DPPC liposome mixtures (main phase transition); type: physicochemical; details: for Loss of transition (concentration range within which the phase transition was no longer detected): DPPC liposomes 0.4 mM lipid, DSC heating scans
Method: The median effective concentrations (EC50) were determined for each IL. Since the toxic effect was thought to be caused by permeation of these surface-active molecules into the cell wall of the bacteria, related interactions of ILs with biomimetic liposomes were investigated utilizing differential scanning calorimetry (DSC). In DSC experiments, dipalmitoyl phosphatidylcholine (DPPC) liposomes were used as biomimicking membranes and the change in the main phase transition temperature (Tm) of the DPPC bilayer was followed, as a function of the IL concentrations. Such measurements could potentially offer more information on how the aforementioned ILs interact with the lipid bilayers. Lastly, the critical micelle concentrations (CMC) were defined for the ILs. Based on the CMCs, it can be defined if the ILs are dissolved as singly dispersed molecules or form a dispersion of spherical micelles, or other self-assembled structures (aggregates). Therefore, it can be determined if the interactions with the bacteria or liposomes take place between IL aggregates or singly dispersed IL molecules.
The DSC experiments were performed in order to find out the IL concentrations that induce the drift in the DPPC bilayer phase transition temperature. FIG. 3 illustrates the representative endotherms, which were recorded during the second heating scans. Since the heating and the cooling scans were performed three times, the second heating endotherm was selected as the representative one. […] If the baseline variations observed during the first heating scans were not observed on the following two scans and with other concentrations of the same ILs, they were regarded as artefacts. […] Cooling scans (not shown) were recorded in order to follow the stability of the system, however, no further analysis of the cooling scans was performed. Such heating and cooling scans are standard in DSC experiments.
The DSC results are discussed in more detail in the following text for each IL carboxylate group. Instead of referring to the peak areas, which define the energy taken by the transition (cal/° C./mol), corresponding peak heights are referred to in the text, since the relative changes in the peak heights are more easily observed by visual inspection.
A stock solution of DPPC was prepared by dissolving DPPC in chloroform. Required amount of the stock solution was transferred into a glass test tube and the chloroform was evaporated under airflow in order to form a thin film of DPPC on the walls of the tube. The air-dried lipid film was held under vacuum desiccator at least for 2 h to remove the residual solvent. The lipid was dispersed into water to obtain a 4.0 mM liposome stock. The dispersion was incubated in an ultrasonication water bath for 30 min at 60° C. facilitating the formation of multilamellar liposomes.
DSC was utilized in observing the changes induced by the ILs in the organization of the lipid bilayers. Here DPPC was used because the Tm of the bilayer is well recognized—approximately 41.3° C. […] There are two additional transitions observed for DPPC aqueous solutions; the subtransition at 21° C. and the pretransition at 36° C.

[4] = DPPC liposomes, earlier DSC investigation; cited from earlier work
[5] = Vibrio fischeri, 5 min incubation, 2% (w/v) NaCl solution, read-out: EC50 5min
[6] = Vibrio fischeri, 15 min incubation, 2% (w/v) NaCl solution, read-out: EC50 15min
[7] = Aliivibrio fischeri, 5 min, Vibrio fischeri, 5 min incubation, 2% (w/v) NaCl solution, read-out: EC50 5min
[8] = Aliivibrio fischeri, 0.25 h, Vibrio fischeri, 15 min incubation, 2% (w/v) NaCl solution, read-out: EC50 15min

Molecule | CMC (critical micelle concentration) [1] | Loss of transition (concentration range within which the phase transition was no longer detected) [3] [mM] | EC50 [2, 5] [µM] | EC50 [2, 6] [µM] | other results
CC(C)(C)CCCCCC(=O)[O-].[Na+] [Na Neodecanoate, sodium neodecanoate, reference compound] | 422 ± 38^L mM | 40 to 60 | – | – | EC50 ([2]; Aliivibrio fischeri, 5 min, read-out: EC50 5min): 500 ± 20 µM; EC50 ([2]; Aliivibrio fischeri, 0.25 h, read-out: EC50 15min): 473 ± 6 µM
guanidinium neodecanoate [GND Neodecanoate] | 118 ± 2^L mM | 15.0 to 25.0 | 730 ± 90 | 690 ± 70 | –
1,1,3,3-Tetramethylguanidinium isostearate [TMG Isostearate] | 0.30 ± 0.04^S mM | 0.5 to 1.0 | 94 ± 1 | 62 ± 5 | –
choline decanoate [Ch Decanoate] | – | 2.0 to 5.0 | 100 ± 20 | 100 ± 20 | concentrations at which the ILs affected the liposomes ([3]; DPPC liposomes 0.4 mM, DSC): 0.5 to 5 mM
CC(C)CCCCCCCCCCCCCCC(=O)[O-].[Na+] [Na Isostearate, sodium isostearate, reference compound] | 0.72 ± 0.06^L mM | 0.001 to 0.01 | – | – | EC50 [2, 7]: 110 ± 10 µM; EC50 [2, 8]: 81 ± 4 µM
CCCCCCCCCC(=O)[O-].[Na+] [Na decanoate, sodium decanoate, reference compound] | 22±3 mM and 22 ± 3^L mM | – | – | – | EC50 [2, 7]: 130 ± 20 µM; EC50 [2, 8]: 130 ± 20 µM; Tm of DPPC bilayer ([3]; 50 mM IL, 0.4 mM DPPC): above 35 °C
Choline isostearate [Ch Isostearate] | 0.50 ± 0.06^L mM | 0.5 to 1.0 | 130 ± 20 | 74 ± 5 | CMC (critical micelle concentration) ([1]; listed as Ch isostearate): ~0.5 mM
choline neodecanoate [Ch Neodecanoate] | 319 ± 13^L mM | – | 560 ± 60 | 520 ± 80 | highest concentration at which the transition peak was still observed ([3]; 0.4 mM DPPC, no higher concentrations measured): 60 mM
CCCCCCCCC(=O)[O-].C[N+](C)(C)CCO [Ch nonanoate] | – | – | – | – | highest concentration at which a peak for the Tm was still observed [4]: 50 mM
1,1,3,3-tetramethylguanidinium neodecanoate [TMG Neodecanoate] | 261 ± 11^L mM | – | 700 ± 70 | 650 ± 70 | –
Guanidinium isostearate [GND Isostearate] | 0.31 ± 0.08^S mM | 0.5 to 1.0 | 98 ± 2 | 66 ± 5 | –

From patent US11697772B2, “Hydrotropic composition and its uses” (KEMIRA OYJ, priority 2017, dated 2023)
